Data: patent US20240025906A1 (NEURON23, INC., priority 2022, published 2024)
Where two headings read alike, the source gives them in different places.

Tests used:
[1] = target: T1, TYK2 JH2 (Homo sapiens, UniProt P29597); test: TYK2 JH2 binding assay (KINOMEscan KdELECT competitive binding); conditions: TYK2 JH2 domain
T1 construct: purchased DiscoverX (KINOMEscan KdELECT service); host or cells: E. coli BL21-derived (T7 phage display) or HEK-293
Method in brief: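 JH2-domain fragment, expressed as T7 phage tag in BL21-derived E. coli or DNA-tagged from HEK-293, competed with test compound against bead-immobilized biotinylated ligand in binding buffer (0.9% DMSO). 1 h shaking at room temperature; bound kinase eluted with 0.5 μM free ligand and quantified by qPCR. Kd from 11-point 3-fold dilutions.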

[2] = test system: JAK1/TYK2 pSTAT5 (Tyr694/699) in THP-1 cell line; test: IFNa-stimulated JAK1/TYK2 pSTAT5 (Tyr694/699) inhibition cellular assay, AlphaLISA; type: cell-based; conditions: Homo sapiens, THP-1 cells, AlphaLISA (Assay B)
Method in brief: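 THP-1 cells (2e4/well in HBSS) were preincubated with compound (8 points, 6-fold steps from 10000 nM final) for 1 h at 37 °C, then stimulated with IFNa (added at 100 ng/mL) for 30 min. Lysate pSTAT5 was read by AlphaLISA at 615 nm. IC50 came from a 4-parameter fit with bottom 0 and Hill −1.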

[3] = KINOMEscan KdELECT (Assay A), read-out: Biochemical TYK2_DiscoverX_JH2_BND_Kd
[4] = IFNa-stimulated pSTAT5 (Tyr694/699), read-out: Cellular_THP1_IFNa-pSTATS_TYK2
[5] = KINOMEscan KdELECT (Assay A), read-out: Biochemical TYK2_JH2_Kd
[6] = IFNa-stimulated, read-out: Cellular THP1_IFNa-pSTATS_IC50
[7] = IFNa-stimulated, read-out: Cellular_THP1_IFNa-pSTATS_TYK2
[8] = DiscoverX KINOMEscan KdELECT (Assay A), read-out: Biochemical TYK2_DiscoverX_JH2_BND_Kd

T1 sequence (P29597 589-875 limits assumed): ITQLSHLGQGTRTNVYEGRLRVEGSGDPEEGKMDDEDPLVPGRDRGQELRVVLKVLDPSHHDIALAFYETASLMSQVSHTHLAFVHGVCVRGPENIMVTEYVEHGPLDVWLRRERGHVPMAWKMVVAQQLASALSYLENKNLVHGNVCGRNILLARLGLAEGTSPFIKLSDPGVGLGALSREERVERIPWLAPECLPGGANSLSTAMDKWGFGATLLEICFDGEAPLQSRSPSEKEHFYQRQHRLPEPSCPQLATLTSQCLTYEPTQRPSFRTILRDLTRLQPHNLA

Row | SMILES | Kd [1, 3] [nM] | IC50 [2, 7] [nM] | Kd [1, 8] [nM] | further results
1 | CNc1ncc(C#Cc2ccc(N3CCOCC3=O)cc2)c2cc(NC(=O)C3CC3)ncc12 [Example 999, N-(8-(methylamino)-5-((4-(3-oxomorpholino)phenyl)ethynyl)-2,7-naphthyridin-3-yl)cyclopropanecarboxamide] | ≤ 100 |  |  | IC50 [2, 4]: ≤ 500 nM
2 | CNc1ncc(-c2cnn(CCOC)c2)c2cc(NC(=O)C3CC3)ncc12 [Example 115, N-(5-(1-(2-methoxyethyl)-1H-pyrazol-4-yl)-8-(methylamino)-2,7-naphthyridin-3-yl)cyclopropanecarboxamide] |  |  |  | Kd [1, 5]: ≤ 100 nM; IC50 [2, 6]: > 500 nM
3 | CNc1ncc(C#Cc2ccc(N3CCOCC3)cc2)c2cc(NC(=O)[C@H]3C[C@H]3C(F)F)ncc12 (single isomer, unassigned) [Example 1075] | ≤ 100 |  |  | IC50 [2, 4]: ≤ 500 nM
4 | CNc1ncc(-c2nc3cc(C4(C)CCCO4)ccc3o2)c2cc(NC(=O)C3CC3)ncc12 (centres unmarked) [Example 947, N-(8-(methylamino)-5-(5-(2-methyltetrahydrofuran-2-yl)benzo[d]oxazol-2-yl)-2,7-naphthyridin-3-yl)cyclopropanecarboxamide] | ≤ 100 | ≤ 500 |  | 
5 | CNc1ncc(-c2nc3cc(N4CC5(CN(C(C)=O)C5)C4)ccc3o2)c2cc(NC(=O)C3CC3)ncc12 [Example 322, N-(5-(5-(6-acetyl-2,6-diazaspiro[3.3]heptan-2-yl)benzo[d]oxazol-2-yl)-8-(methylamino)-2,7-naphthyridin-3-yl)cyclopropanecarboxamide] |  | ≤ 500 | ≤ 100 | 
6 | CNc1ncc(-c2nc3ccc(N4CCO[C@@H](C)C4)cc3o2)c2cc(NC(=O)C3CC3)ncc12 [Example 275, (S)—N-(8-(methylamino)-5-(6-(2-methylmorpholino)benzo[d]oxazol-2-yl)-2,7-naphthyridin-3-yl)cyclopropanecarboxamide] |  | ≤ 500 | ≤ 100 | 
7 | CNc1ncc(-c2nc3cc(N4CCS(=O)(=O)CC4)ccc3o2)c2cc(NC(=O)C3CC3)ncc12 [Example 303, N-(5-(5-(1,1-dioxidothiomorpholino)benzo[d]oxazol-2-yl)-8-(methylamino)-2,7-naphthyridin-3-yl)cyclopropanecarboxamide] |  | ≤ 500 | ≤ 100 | 
8 | CNc1ncc(-c2ncc(C)o2)c2cc(NC(=O)C3CC3)ncc12 [Example 133, N-(8-(methylamino)-5-(5-methyloxazol-2-yl)-2,7-naphthyridin-3-yl)cyclopropanecarboxamide] |  |  |  | Kd [1, 5]: ≤ 100 nM; IC50 [2, 6]: > 500 nM
9 | CNc1ncc(-c2nc3ccc(C)cc3o2)c2cc(NC(=O)C3CC3)ncc12 [Example 206, N-(8-(methylamino)-5-(6-methylbenzo[d]oxazol-2-yl)-2,7-naphthyridin-3-yl)cyclopropanecarboxamide] |  | ≤ 500 | ≤ 100 | 
10 | CN=S(C)(=O)c1ccc(C#Cc2cnc(NC)c3cnc(NC(=O)C4CC4)cc23)cc1 (centres unmarked) [Example 1002, N-(5-((4-(N,S-dimethylsulfonimidoyl)phenyl)ethynyl)-8-(methylamino)-2,7-naphthyridin-3-yl)cyclopropanecarobxamide] | ≤ 100 |  |  | IC50 [2, 4]: ≤ 500 nM
11 | CNc1ncc(-c2nc3cc(N4CC5(CCOCC5)C4)ccc3o2)c2cc(NC(=O)C3CC3)ncc12 [Example 934, N-(5-(5-(7-oxa-2-azaspiro[3.5]nonan-2-yl)benzo[d]oxazol-2-yl)-8-(methylamino)-2,7-napththyridin-3-yl)cyclopropanecarboxamide] | ≤ 100 | ≤ 500 |  | 
12 | CNc1ncc(-c2nc3ccc(N4CC5CCC(C4)O5)cn3n2)c2cc(NC(=O)C3CC3)ncc12 [Example 584, N-(5-(6-(8-oxa-3-azabicyclo[3.2.1]octan-3-yl)-[1,2,4]triazolo[1,5-a]pyridin-2-yl)-8-(methylamino)-2,7-naphthyridin-3-yl)cyclopropanecarboxamide] |  | ≤ 500 | ≤ 100 | 
13 | CNc1ncc(-c2ccc(OCC(F)(F)F)cc2)c2cc(NC(=O)C3CC3)ncc12 [Example 111, N-(8-(methylamino)-5-(4-(2,2,2-trifluoroethoxy)phenyl)-2,7-naphthyridin-3-yl)cyclopropanecarboxamide] |  |  |  | Kd [1, 5]: ≤ 100 nM; IC50 [2, 6]: > 500 nM
